The results in this text go back to US6362369B1, “Phthalic acid diamide derivatives fluorine-containing aniline compounds as starting material, agricultural and horticultural insecticides, and a method for application of the insecticides” (Nihon Nohyaku Co., Ltd., priority 1997, dated 2002).

Holding throughout (assay type): in vivo
Assay [1] concerns common cutworm (Spodoptera Litura). Briefly: Insecticidal effect on common cutworm (Test Example 2). The following applies: 500 ppm, 25° C.; for Insecticidal effect, Test Example 2: cabbage leaf immersed; for Insecticidal effect, Test Example 2 / Insecticidal effect on common cutworm (Test Example 2), judged grade: eight days after inoculation; for Insecticidal effect on common cutworm (Test Example 2), judged grade / Insecticidal effect (Test Example 2), judged from mortality: cabbage leaf dip; for Insecticidal effect on common cutworm (Test Example 2), judged grade: second-instar larvae; for Insecticidal effect (Test Example 2), judged from mortality: 8 days after inoculation. The procedure, abridged:
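2nd-instar larvae on air-dried treatment, closed dish, 25° C; dead/alive counted at day 8. Mortality calculated, graded by criterion. 3 × 10 insects.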

Assay [2] relates to rice leafroller (Cnaphalocrocis medinalis). The assay can be described thus: Insecticidal effect on rice leafroller (Test Example 3). The following applies: 500 ppm, 25° C., humidity 70%; for Insecticidal effect, Test Example 3: rice lamina immersed; for Insecticidal effect, Test Example 3 / Insecticidal effect on rice leafroller (Test Example 3), judged grade: four days after inoculation; for Insecticidal effect on rice leafroller (Test Example 3), judged grade / Insecticidal effect (Test Example 3), judged from mortality: rice lamina dip; for Insecticidal effect on rice leafroller (Test Example 3), judged grade: third-instar larvae; for Insecticidal effect (Test Example 3), judged from mortality: 4 days after inoculation. The procedure, abridged:
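Insecticidal effect is judged by a predefined criterion from dead/alive counts four days after infesting air-dried lamina with third-instar larvae, kept on moistened filter paper at 25° C, 70% humidity.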

The subject of assay [3] is diamondback moth (Plutella xylostella). Briefly: Insecticidal effect on diamondback moth (Test Example 1). The following applies: for Insecticidal effect, Test Example 1 / Insecticidal effect (Test Example 1), judged from mortality: diamondback moth; for Insecticidal effect on diamondback moth (Test Example 1), judged grade: mortality judged according to the criterion shown in Test Example 1; for Insecticidal effect (Test Example 1), judged from mortality: judged by the criterion of Test Example 1. In outline:
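Triplicate groups of 10 insects were scored: six days after immersion of oviposited Chinese cabbage seedlings and holding at 25 °C post air-drying, hatched larvae were counted. Mortality derived from these counts and insecticidal effect judged by a set criterion.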

[4] abbreviates: second-instar larvae of common cutworm.
Where [5] appears, read: third-instar larvae of rice leafroller.
The mark [6] stands for this setting: judged by the mortality criterion of Test Example 1.
The mark [7] stands for this setting: common cutworm second-instar larvae.
The mark [8] stands for this setting: rice leafroller third-instar larvae.
Setting [9] is: mortality judged by criterion of Test Example 1.

Molecules are shown by their SMILES.

On to `Cc1cc(C(F)(F)C(F)(F)F)ccc1NC(=O)c1ccccc1C(=O)NC(C)C` [compound 55], for which the “Insecticidal effect, Test Example 2” value in assay [1] (setting [4]) is “B (99-90)”. In addition, the “Insecticidal effect, Test Example 3” value in assay [2] (setting [5]) is recorded as “A (100)”. For the same molecule, in assay [3] (setting [6]), the “Insecticidal effect, Test Example 1” value was “A (100)”.
For `Cc1cc(OCC(F)(F)C(F)F)ccc1NC(=O)c1c(Cl)cccc1C(=O)NC(C)C` [compound 230], the “Insecticidal effect, Test Example 2” value in assay [1] (setting [4]) is “C (89-80)”. For the same molecule, the “Insecticidal effect, Test Example 3” value in assay [2] (setting [5]) is “A (100)”. For the same molecule, the “Insecticidal effect, Test Example 1” value in assay [3] (setting [6]) is recorded as “A (100)”.
Regarding `Cc1cc(C(F)(F)C(F)(F)F)ccc1NC(=O)c1ccc(I)cc1C(=O)NC(C)C` [compound 1202], the “Insecticidal effect, Test Example 2” value in assay [1] (setting [7]) is reported as “A (100)”. In addition, the “Insecticidal effect, Test Example 3” value in assay [2] (setting [8]) is reported as “A (100)”. The “Insecticidal effect, Test Example 1” value in assay [3] (setting [9]) is on record as “A (100)”.
For `CCN(CC)C(=O)c1c(C(=O)Nc2ccc(C(F)(C(F)(F)F)C(F)(F)F)cc2C)ccc(F)c1Cl` [compound 1264], in assay [1] (setting [7]), the “Insecticidal effect, Test Example 2” value is reported as “A (100)”. Further, the “Insecticidal effect, Test Example 3” value in assay [2] (setting [8]) is given as “A (100)”. In assay [3] (setting [9]), the “Insecticidal effect, Test Example 1” value is on record as “A (100)”.
With `Cc1cc(Cl)ccc1NC(=O)c1cccc(F)c1C(=O)NC(C)C` [compound 490], the “Insecticidal effect on common cutworm (Test Example 2), judged grade” value (from here on “Insecticidal effect on common cutworm”) in assay [1] is “A (100)”. In addition, the “Insecticidal effect on rice leafroller (Test Example 3), judged grade” value (“Insecticidal effect on rice leafroller” below) in assay [2] was “A (100)”. For the same molecule, the “Insecticidal effect on diamondback moth (Test Example 1), judged grade” value (“Insecticidal effect on diamondback moth” below) in assay [3] is given as “A (100)”.
On to `C#CC(C)(C)NC(=O)c1c(Cl)cccc1C(=O)Nc1ccc(OC(F)(F)F)cc1C` [compound 1602], for which the “Insecticidal effect (Test Example 2), judged from mortality” value in assay [1] (setting [4]) is “A (100)”. In addition, the “Insecticidal effect (Test Example 3), judged from mortality” value in assay [2] (setting [5]) is “A (100)”. In assay [3], the “Insecticidal effect (Test Example 1), judged from mortality” value is recorded as “A (100)”.
Consider `Cc1ccc(Cl)cc1NC(=O)c1cccc(Br)c1C(=O)NC(C)C` [compound 268], for which the “Insecticidal effect, Test Example 2” value in assay [1] (setting [4]) was “A (100)”. In addition, in assay [2] (setting [5]), the “Insecticidal effect, Test Example 3” value is listed as “A (100)”. The “Insecticidal effect, Test Example 1” value in assay [3] (setting [6]) is listed as “A (100)”.
For the molecule `CC(C)NC(=O)c1cccc(I)c1C(=O)Nc1ccc(C(F)(C(F)(F)F)C(F)(F)F)cc1` [compound 416], in assay [1] (setting [4]), the “Insecticidal effect, Test Example 2” value was “A (100)”. In assay [2] (setting [5]), the “Insecticidal effect, Test Example 3” value is recorded as “A (100)”. Further, in assay [3] (setting [6]), the “Insecticidal effect, Test Example 1” value is “A (100)”.
Turning to `Cc1cc(Oc2ccc(C(F)(F)F)cn2)ccc1NC(=O)c1cccc(I)c1C(=O)NC(C)C` [compound 399], the “Insecticidal effect, Test Example 2” value in assay [1] (setting [4]) was “A (100)”. Also, the “Insecticidal effect, Test Example 3” value in assay [2] (setting [5]) is on record as “A (100)”. The “Insecticidal effect, Test Example 1” value in assay [3] (setting [6]) is “A (100)”.
As to `Cc1cc(C#Cc2ccc(Cl)cc2Cl)ccc1NC(=O)c1cccc(Cl)c1C(=O)NC(C)C` [compound 971], the “Insecticidal effect, Test Example 2” value in assay [1] (setting [7]) is “A (100)”. The “Insecticidal effect, Test Example 3” value in assay [2] (setting [8]) is recorded as “A (100)”. Further, the “Insecticidal effect, Test Example 1” value in assay [3] (setting [9]) is listed as “A (100)”.
Regarding `COc1cccc(C(=O)Nc2ccc(Br)cc2C)c1C(=O)NC(C)C` [compound 768], in assay [1], the “Insecticidal effect on common cutworm” value is recorded as “B (99-90)”. Also, the “Insecticidal effect on rice leafroller” value in assay [2] is “A (100)”. For the same molecule, in assay [3], the “Insecticidal effect on diamondback moth” value is given as “A (100)”.
As for `Cc1cc(C(F)(F)C(F)(F)F)ccc1NC(=O)c1cccc(Cl)c1C(=O)NCc1ccc(OC(F)(F)F)cc1` [compound 1576], in assay [1] (setting [4]), the “Insecticidal effect (Test Example 2), judged from mortality” value is “D (79-50)”. For the same molecule, in assay [2] (setting [5]), the “Insecticidal effect (Test Example 3), judged from mortality” value is “A (100)”. Besides, the “Insecticidal effect (Test Example 1), judged from mortality” value in assay [3] is reported as “A (100)”.
For `CCNC(=O)c1cccc(I)c1C(=O)Nc1ccc(C(F)(F)C(F)(F)F)cc1C` [compound 1314], the “Insecticidal effect, Test Example 2” value in assay [1] (setting [7]) was “A (100)”. Besides, in assay [2] (setting [8]), the “Insecticidal effect, Test Example 3” value is reported as “A (100)”. Moreover, in assay [3] (setting [9]), the “Insecticidal effect, Test Example 1” value is reported as “A (100)”.
Turning to `CCCN(CCC)C(=O)c1c(I)cccc1C(=O)Nc1ccc(OC(F)(F)C(F)F)cc1C` [compound 1158], the “Insecticidal effect, Test Example 2” value in assay [1] (setting [7]) was “D (79-50)”. Moreover, in assay [2] (setting [8]), the “Insecticidal effect, Test Example 3” value was “A (100)”. In addition, the “Insecticidal effect, Test Example 1” value in assay [3] (setting [9]) is recorded as “A (100)”.
For the molecule `CC(C)NC(=O)c1c(I)cccc1C(=O)Nc1ccc(SC(F)(F)C(F)F)cc1` [compound 356], in assay [1] (setting [4]), the “Insecticidal effect, Test Example 2” value is given as “A (100)”. For the same molecule, the “Insecticidal effect, Test Example 3” value in assay [2] (setting [5]) is listed as “A (100)”. Moreover, the “Insecticidal effect, Test Example 1” value in assay [3] (setting [6]) is on record as “A (100)”.
Consider `Cc1cc(OC(F)(F)C(F)C(F)(F)F)ccc1NC(=O)c1c(Cl)cccc1C(=O)NC(C)C` (stereo not drawn) [compound 242], for which the “Insecticidal effect, Test Example 2” value in assay [1] (setting [4]) was “B (99-90)”. In addition, the “Insecticidal effect, Test Example 3” value in assay [2] (setting [5]) is on record as “A (100)”. The “Insecticidal effect, Test Example 1” value in assay [3] (setting [6]) is “A (100)”.
On to `CC(C)NC(=O)c1c(F)cccc1C(=O)Nc1ccc(Oc2ccc(C(F)(F)F)cc2Cl)cc1F` [compound 901], for which the “Insecticidal effect on common cutworm” value in assay [1] is reported as “D (79-50)”. Besides, in assay [2], the “Insecticidal effect on rice leafroller” value is reported as “A (100)”. In addition, the “Insecticidal effect on diamondback moth” value in assay [3] is reported as “A (100)”.
As to `Cc1cc(C(F)(F)C(F)(F)F)ccc1NC(=O)c1cccc(I)c1C(=O)NC(C)(C)C` [compound 942], the “Insecticidal effect, Test Example 2” value in assay [1] (setting [7]) is listed as “A (100)”. The “Insecticidal effect, Test Example 3” value in assay [2] (setting [8]) is reported as “A (100)”. For the same molecule, in assay [3] (setting [9]), the “Insecticidal effect, Test Example 1” value is “A (100)”.
As for `Cc1cc(OC(F)(F)C(F)(Br)C(F)(F)F)ccc1NC(=O)c1cccc(F)c1C(=O)NC(C)C` (stereo not drawn) [compound 516], the “Insecticidal effect on common cutworm” value in assay [1] is “A (100)”. In addition, in assay [2], the “Insecticidal effect on rice leafroller” value is reported as “A (100)”. The “Insecticidal effect on diamondback moth” value in assay [3] was “A (100)”.
